The test system of one series is enzyme-labeled antibody. Put plainly: Potency/specific activity of stock solution or semifinished product, enzyme-linked plate. The format is binding. An excerpt: Chromatography column AP5 20/275 POROS 50 R1 was used in the batch production. After peptide-resin was cleaved and preliminarily purified, the collected εPA44 sample was divided into 7 parts for high purification, and the effects and reproducibility for batch purification of εPA44 stock solution were furthered studied. […] The collected elution peak fractions of εPA44 were pooled and mixed homogenously, aliquots were removed for analysis. If the sample met the set standards, it was used as the stock solution and was stored at −20° C. until use. The output, yield and specific activity of the product were calculated based on the measured data.
The semifinished product to be tested was diluted to a concentration within the measurable range of the potency determination. An enzyme-linked plate( ? ) was coated, blocked, bound by enzyme-labeled antibody, and developed. The absorbance at 450 nm (A450 nm) was detected by an enzyme-labeling device, and compared to the reference of the product. The potency of εPA44 in the extract of the sample was determined, and the specific activity of the semifinished product ( ? ) was calculated.
The reference of the product was 10-fold diluted with 50% ethanol, and then was two-fold serially diluted. 100 μl dilutions were separately added to the wells on the 96-well enzyme-linket immunosorbent assay plate, each well was repeated in triplicate. Coating was carried out in refrigerator at 4° C. for 20-24 hours. The stock solution of εPA44 was diluted and coated similarly to the reference. 100 μl of 50% ethanol was added to negative control wells. After the coating was completed, 200 μl 1% calf serum was added to each well, and blocked in refrigerator at 4° C. for 2 hours. The enzyme-linket immunosorbent assay plate was dried in air, 80 μl enzyme-labeled antibody was added to each well and incubated at 37° C. for 40 minutes. The plate was washed with wash solution for 4 times and dried in air, then 50 μl of substrate solution A and 50 μl of substrate solution B were added to each well and developed at 37° C. for 15 minutes under protection from light. Then 50 μl of stop solution was added to each well. A450 nm values were detected on 550 type enzyme-linket immunosorbent assay detector. The median dilution times of the reference and the samples were calculated by program or linear regression method based on the median effect value of the reference of εPA44 (median maximum absorbance), and the potency of the test sample and the specific activity of the product were calculated according to the following formulas.

The next series relates to Balb/c mice. Put plainly: Neutralizing antibodies, double-antibody-sandwich and competitive inhibition test. In kind it is in vivo. The protocol:
Balb/c mice of 2-3 Months old (both male and female) were divided into 8 groups […], and were immunized with εPA44 at both postpede palmas once a week for three times at different doses: 0.001 nmol, 0.01 nmol, 0.1 nmol, 0.5 nmol, 1 nmol, 10 nmol, 20 nmol respectively, 3 weeks after the immunization, the mice were bled by removing their eyeballs and serums were collected. Antibodies were tested by the double-antibody-sandwich method. The specificity was tested by antibody competitive inhibition test using of the 10 world wide available monoclonal antibodies.

The nature of series [1]: Solubility in different solution systems. The format is physicochemical. An excerpt: εPA44 was soluble and stable in DMSO, but poorly soluble and stable in other solutions (see Table 5). Thus, DMSO was used as the mobile phase for SEC.
Series [2] is described as follows: Overall functional screening of tri-epitope molecules. From the text:
The designed immunogens are synthesized by chemical synthesis methods. Firstly, the most probable structures according to the computer alignment and in theory are synthesized, and then functionally screened in vitro. The screening in vitro comprises: inducing the Th1 activation of peripheral blood mononuclear cells, inducing the HBV-specific CTL, inhibiting HBsAg and HBeAg on HepG2.2.1.5 cells with polypeptide antigen-specific CTL, etc. The designed structures are optimized, improved and synthesized in the next cycle bused on the results of functional tests in vitro. The structures selected out in the in vitro tests are further screened in in vivo tests, the screening comprising: inducing the Th1 activation in Balb/C mice, inhibiting virus replication in HBV transgenic mice, conducting acute toxicity tests in mice, etc. […] Among tri-epitope molecules of different epitope combinations, εPA44 achieves the best effect (see Table 4). The in vivo and in vitro tests indicate that the convalent modification by palmitic acid gives better effects among various chemical modifications.

Series [3] has as its system human peripheral blood mononuclear cells (PBMCs). Nature of the series: Proliferation of human PBMCs from normal persons, 3H-TdR. In kind it is cell-based. To be noted: 0.1 μg, 1 μg and 10 μg/ml with IL-2. The protocol:
Anticoagulant peripheral blood was collected from normal persons under sterile conditions, PBMCs were isolated by conventional Ficoll-Hypaque density gradient centrifugation and were cultured in RPMI1640 culture media (containing 10% calf serum, 100 u/ml penicillin-streptomycin, L-glutamine) in vitro on 24-well culture plates at the cell concentration of 10^6/ml. Blank control group, test group and Pre-S(2) control group were included, to which IL-2 (30 IU/ml) and test drug (0.1 μg/ml, 1 μg/ml, 10 μg/ml) were added. After the cells were cultured for 6 days, IL-2 and the test drug were added at the same dose to stimulate the cells again, and then 3H-TdR (1 uCi/ml) was added. After the cells were further cultured for 18 hours, they were collected and tested by liquid scintillation.

Series [4] in a line: pI stated in the formulation description. In kind it is physicochemical. The note with it: stated without method in formulation example 39.
A further series relates to HBV-DNA transgenic mice. Nature of the series: HBV transgenic mice: cytokines of spleen lymphocytes, ELISA (Th1/Th2). The note with it: 10, 100, 1000 U/mouse s.c., day 30; spleen lymphocytes restimulated with 10 ng/ml for 3 days. In kind it is in vivo. The protocol:
(§1) The levels of cytokines such as IFN-γ, IL-4, etc. in supernatant were measured by the ELISA method, and the activity of the test drug (CH3(CH2)14COKSSQYIKANSKFIGITEAAASIVSPFIPLLGGGDPRVRGLYFPA) (SEQ ID NO:5) for inducing the differentiation of T cells into Th1/Th2 type was analyzed. […] The expression frequency of IFN-γ secreting cells in peripheral blood lymphocytes was measured by the ELI-SPOT method in said supernatant. […] On the 10th, 20th and 30th day after the end of the three immunizations, bloods were removed, serum isolated, and the contents of HBsAg and HBV-DNA in the serum were separately measured by the ELISA method and quantitative PCR method.
Then supernatants were collected and the secretion levels of cytokines such as TNF-α, IFN-γ, IL-4, etc. in supernatants were measured by ELISA, and the activity of the test drug for inducing the conversion of Th1/Th2 type from T cells in subjects was analyzed.

Series [5] has as its system hepatitis B surface antigen (HBsAg) in HBV transgenic mice. Put plainly: HBV transgenic mice: HBsAg in serum, ELISA. The format is in vivo. To be noted: 10th, 20th, 30th day after three immunizations, 10-1000 U/mouse. The protocol: as §1
(An ELISA detects its analyte on a solid surface through an enzyme-linked reagent.)

Values joined by “and” are separate entries in the source; they are usually repeats but may differ in a detail not shown here. Equal entries are not always repeated. Ends that are not written are not given here. * marks the point of attachment. Palmitoyl = CCCCCCCCCCCCCCCC(=O)*

For orientation: solubility means the dissolved amount per volume that the medium holds. Low readings indicate little dissolved substance, high ones much dissolved substance. Turning to “K(Palmitoyl)SSQYIKANSKFIGITEAAAFLPSDFFPSVGGGDPRVRGLYFPA-OH [SEQ ID NO:1, CH3(CH2)14COKSSQYIKANSKFIGITEAAAFLPSDFFPSVGGGDPRVRGLYFPA]”, the Specific activity with enzyme-labeled antibody (semifinished product) was 13985.31 U/mg; in the series with enzyme-labeled antibody (stock solution after reversed phase chromatography, batches 1-3 and x ± Sx, listed as εPA44), 10265.08 U/mg and 11689.76 ± 1503.57 U/mg and 13261.42 U/mg and 11542.77 U/mg. In the series on enzyme-labeled antibody (semifinished product), the “potency of each vial” value is 4085.53 U. The “specificity of induced antibodies” value in the series with Balb/c mice (antibody competitive inhibition test with monoclonal antibodies) is “HBV neutralizing antibodies”. Further, the “dose inducing the generation of antibody” value in the series on Balb/c mice (serum 3 weeks after immunization) stood at 0.01 nmol. Besides, the solubility was 10 µg/mL in series [1] (0.1 mol/L PB (pH 6.8)); 80 µg/mL in series [1] (2% Tween80-0.1 mol/L PB(pH 6.8)); 1670 µg/mL in series [1] (50% Acetonitrile-0.1% TFA); 2530 µg/mL in series [1] (50% DMSO); 2480 µg/mL in series [1] (50% Ethanol-10 mmol/L HCl); 2430 µg/mL in series [1] (50% Ethanol-10 mmol/L phosphoric acid). The solubility in series [1] (50% Methanol-0.1% TFA) amounted to 1540 µg/mL; in series [1] (DMSO), 11700 µg/mL. Besides, in series [2], the “effect among tri-epitope molecules of different epitope combinations” value is reported as “best effect”. Besides, in series [3], the “proliferation of human PBMCs” value was “stimulated the proliferation of human PBMCs in a manner of dose dependence”. This substance yielded a pI in series [4] of 8.1. In addition, the IL-4 secretion entry in the series on HBV-DNA transgenic mice is listed as “no obvious dose-effect dependence relation”. The “secretion of IFN-γ” value in the series with HBV-DNA transgenic mice was “stronger”. Further, the “HBsAg in the serum” value in series [5] is “decreased in a manner of dose-dependence and time-dependence”.

(Values after patent US8591908B2, “Immunogen for preparation of therapeutic vaccines or drugs for treatment of hepatitis B and the producing method and use thereof” (Institute of Immunology, PLA, priority 2002, dated 2013).)
